Data reported in PubChem BioAssay (NCI).
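Five compound concentrations were applied to cells in 96-well plates for 48 hours; endpoints were derived by simple linear interpolation of the resulting dose-response curve. GI50 marks 50% less growth. Definition used: TGI = concentration required for complete inhibition of growth.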

Key:
Assay in all cases: DTP human tumour cell line panel, 48 h
SK-MEL-28 melanoma = test system: SK-MEL-28 melanoma
TK-10 renal = test system: TK-10 renal
SW-620 colon = test system: SW-620 colon
A498 renal = test system: A498 renal
786-0 renal = test system: 786-0 renal
OVCAR-3 ovarian = test system: OVCAR-3 ovarian
SK-OV-3 ovarian = test system: SK-OV-3 ovarian
OVCAR-5 ovarian = test system: OVCAR-5 ovarian
U251 CNS = test system: U251 CNS
PC-3 prostate = test system: PC-3 prostate
SNB-75 CNS = test system: SNB-75 CNS
COLO 205 colon = test system: COLO 205 colon
IGROV1 ovarian = test system: IGROV1 ovarian
SK-MEL-5 melanoma = test system: SK-MEL-5 melanoma
SF-539 CNS = test system: SF-539 CNS
EKVX NSCLC = test system: EKVX NSCLC
M14 melanoma = test system: M14 melanoma
CCRF-CEM leukemia = test system: CCRF-CEM leukemia
NCI-H23 lung = test system: NCI-H23 lung
HCC-2998 colon = test system: HCC-2998 colon
HOP-62 NSCLC = test system: HOP-62 NSCLC
K-562 leukemia = test system: K-562 leukemia
SF-268 CNS = test system: SF-268 CNS
NCI/ADR-RES ovarian = test system: NCI/ADR-RES ovarian
SK-MEL-2 melanoma = test system: SK-MEL-2 melanoma
HL-60(TB) leukemia = test system: HL-60(TB) leukemia
SN12C renal = test system: SN12C renal
ACHN renal = test system: ACHN renal
SF-295 CNS = test system: SF-295 CNS
SNB-19 CNS = test system: SNB-19 CNS
HCT-15 colon = test system: HCT-15 colon
DU-145 prostate = test system: DU-145 prostate
HS 578T breast = test system: HS 578T breast
HT29 colon = test system: HT29 colon
NCI-H522 lung = test system: NCI-H522 lung
MDA-MB-231 breast = test system: MDA-MB-231 breast
MDA-MB-435 = test system: MDA-MB-435
CAKI-1 renal = test system: CAKI-1 renal
BT-549 breast = test system: BT-549 breast
UACC-257 melanoma = test system: UACC-257 melanoma
HOP-92 NSCLC = test system: HOP-92 NSCLC
RXF 393 renal = test system: RXF 393 renal
NCI-H226 lung = test system: NCI-H226 lung
A549 NSCLC = test system: A549 NSCLC
OVCAR-4 ovarian = test system: OVCAR-4 ovarian
NCI-H460 lung = test system: NCI-H460 lung
MALME-3M melanoma = test system: MALME-3M melanoma
UO-31 renal = test system: UO-31 renal
HCT-116 colon = test system: HCT-116 colon
MOLT-4 leukemia = test system: MOLT-4 leukemia
T-47D breast = test system: T-47D breast
RPMI-8226 leukemia = test system: RPMI-8226 leukemia
LOX IMVI melanoma = test system: LOX IMVI melanoma
MCF7 breast = test system: MCF7 breast
KM12 colon = test system: KM12 colon
UACC-62 melanoma = test system: UACC-62 melanoma
SR leukemia = test system: SR leukemia
OVCAR-8 ovarian = test system: OVCAR-8 ovarian

COc1ccc(-c2ccc(-c3ccc(C(=N)N)cn3)o2)cc1Cl
GI50 (SK-MEL-28 melanoma): 1690 nM
TGI (SK-MEL-28 melanoma): 3220 nM
GI50 (TK-10 renal): 3190 nM
TGI (TK-10 renal): 9470 nM
GI50 (SW-620 colon): 1780 nM
TGI (SW-620 colon): 3570 nM
GI50 (A498 renal): 2050 nM
TGI (A498 renal): 5570 nM
GI50 (786-0 renal): 1860 nM
TGI (786-0 renal): 3400 nM
GI50 (OVCAR-3 ovarian): 2240 nM
TGI (OVCAR-3 ovarian): 4790 nM
GI50 (SK-OV-3 ovarian): 10600 nM
TGI (SK-OV-3 ovarian): 22800 nM
GI50 (OVCAR-5 ovarian): 1740 nM
TGI (OVCAR-5 ovarian): 3380 nM
GI50 (U251 CNS): 1790 nM
TGI (U251 CNS): 3530 nM
GI50 (PC-3 prostate): 1320 nM
TGI (PC-3 prostate): 2680 nM
GI50 (SNB-75 CNS): 1660 nM
TGI (SNB-75 CNS): 3510 nM
GI50 (COLO 205 colon): 1660 nM
TGI (COLO 205 colon): 3180 nM
GI50 (IGROV1 ovarian): 1860 nM
TGI (IGROV1 ovarian): 3630 nM
GI50 (SK-MEL-5 melanoma): 1600 nM
TGI (SK-MEL-5 melanoma): 2970 nM
GI50 (SF-539 CNS): 1680 nM
TGI (SF-539 CNS): 3140 nM
GI50 (EKVX NSCLC): 2000 nM
TGI (EKVX NSCLC): 4260 nM
GI50 (M14 melanoma): 1670 nM
TGI (M14 melanoma): 3190 nM
GI50 (CCRF-CEM leukemia): 1420 nM
TGI (CCRF-CEM leukemia): 3780 nM
GI50 (NCI-H23 lung): 1920 nM
TGI (NCI-H23 lung): 4040 nM
GI50 (HCC-2998 colon): 1880 nM
TGI (HCC-2998 colon): 3380 nM
GI50 (HOP-62 NSCLC): 3680 nM
TGI (HOP-62 NSCLC): 14400 nM
GI50 (K-562 leukemia): 2700 nM
TGI (K-562 leukemia): 7500 nM
GI50 (SF-268 CNS): 2670 nM
TGI (SF-268 CNS): 8380 nM
GI50 (NCI/ADR-RES ovarian): 2560 nM
TGI (NCI/ADR-RES ovarian): 8090 nM
GI50 (SK-MEL-2 melanoma): 2120 nM
TGI (SK-MEL-2 melanoma): 3810 nM
GI50 (HL-60(TB) leukemia): 2290 nM
TGI (HL-60(TB) leukemia): 5360 nM
GI50 (SN12C renal): 1770 nM
TGI (SN12C renal): 3450 nM
GI50 (ACHN renal): 1690 nM
TGI (ACHN renal): 3100 nM
GI50 (SF-295 CNS): 1650 nM
TGI (SF-295 CNS): 3270 nM
GI50 (SNB-19 CNS): 1790 nM
TGI (SNB-19 CNS): 3400 nM
GI50 (HCT-15 colon): 1730 nM
TGI (HCT-15 colon): 3380 nM
GI50 (DU-145 prostate): 3450 nM
TGI (DU-145 prostate): 11300 nM
GI50 (HS 578T breast): 2080 nM
TGI (HS 578T breast): 6180 nM
GI50 (HT29 colon): 1870 nM
TGI (HT29 colon): 3780 nM
GI50 (NCI-H522 lung): 1850 nM
TGI (NCI-H522 lung): 3590 nM
GI50 (MDA-MB-231 breast): 1810 nM
TGI (MDA-MB-231 breast): 3410 nM
GI50 (MDA-MB-435): 1740 nM
TGI (MDA-MB-435): 3330 nM
GI50 (CAKI-1 renal): 6570 nM
TGI (CAKI-1 renal): 19800 nM
GI50 (BT-549 breast): 1750 nM
TGI (BT-549 breast): 3210 nM
GI50 (UACC-257 melanoma): 2350 nM
TGI (UACC-257 melanoma): 4850 nM
GI50 (HOP-92 NSCLC): 1120 nM
TGI (HOP-92 NSCLC): 2440 nM
GI50 (RXF 393 renal): 1610 nM
TGI (RXF 393 renal): 3070 nM
GI50 (NCI-H226 lung): 2890 nM
TGI (NCI-H226 lung): 13300 nM
GI50 (A549 NSCLC): 2590 nM
TGI (A549 NSCLC): 6560 nM
GI50 (OVCAR-4 ovarian): 2580 nM
TGI (OVCAR-4 ovarian): 7750 nM
GI50 (NCI-H460 lung): 1890 nM
TGI (NCI-H460 lung): 3630 nM
GI50 (MALME-3M melanoma): 1810 nM
TGI (MALME-3M melanoma): 3480 nM
GI50 (UO-31 renal): 1430 nM
TGI (UO-31 renal): 2760 nM

O=C1c2ccccc2-c2c1c1ccc([N+](=O)[O-])cc1c(=O)n2CCCNCCO
GI50 (SK-MEL-28 melanoma): 1270 nM
TGI (SK-MEL-28 melanoma): 2620 nM
GI50 (TK-10 renal): 1370 nM
TGI (TK-10 renal): 4100 nM
GI50 (SW-620 colon): 59.4 nM
TGI (SW-620 colon): 1770 nM
GI50 (A498 renal): 1390 nM
TGI (A498 renal): 3750 nM
GI50 (786-0 renal): 47.9 nM
TGI (786-0 renal): 430 nM
GI50 (OVCAR-3 ovarian): 1140 nM
TGI (OVCAR-3 ovarian): 2780 nM
GI50 (SK-OV-3 ovarian): 525 nM
TGI (SK-OV-3 ovarian): 2560 nM
GI50 (OVCAR-5 ovarian): 520 nM
TGI (OVCAR-5 ovarian): 1920 nM
GI50 (U251 CNS): 77.8 nM
TGI (U251 CNS): 1430 nM
GI50 (HCT-116 colon): 61.2 nM
TGI (HCT-116 colon): 441 nM
GI50 (PC-3 prostate): 90.7 nM
TGI (PC-3 prostate): 1520 nM
GI50 (SNB-75 CNS): 372 nM
TGI (SNB-75 CNS): 1340 nM
GI50 (MOLT-4 leukemia): 37.4 nM
TGI (MOLT-4 leukemia): 1400 nM
GI50 (COLO 205 colon): 1050 nM
TGI (COLO 205 colon): 2810 nM
GI50 (IGROV1 ovarian): 515 nM
TGI (IGROV1 ovarian): 2450 nM
GI50 (SK-MEL-5 melanoma): 87.5 nM
TGI (SK-MEL-5 melanoma): 349 nM
TGI (EKVX NSCLC): > 21000 nM
GI50 (T-47D breast): 42 nM
TGI (T-47D breast): 1710 nM
GI50 (M14 melanoma): 90.4 nM
TGI (M14 melanoma): 1400 nM
GI50 (CCRF-CEM leukemia): 23 nM
TGI (CCRF-CEM leukemia): 1090 nM
GI50 (NCI-H23 lung): 115 nM
TGI (NCI-H23 lung): 713 nM
GI50 (HCC-2998 colon): 817 nM
TGI (HCC-2998 colon): 2130 nM
GI50 (HOP-62 NSCLC): 40.8 nM
TGI (HOP-62 NSCLC): 544 nM
GI50 (RPMI-8226 leukemia): 35.9 nM
TGI (RPMI-8226 leukemia): 239 nM
GI50 (K-562 leukemia): 35.9 nM
TGI (K-562 leukemia): 1240 nM
GI50 (LOX IMVI melanoma): 66.5 nM
TGI (LOX IMVI melanoma): 348 nM
GI50 (SF-268 CNS): 148 nM
TGI (SF-268 CNS): 1990 nM
GI50 (NCI/ADR-RES ovarian): 650 nM
TGI (NCI/ADR-RES ovarian): 3190 nM
GI50 (SK-MEL-2 melanoma): 1690 nM
TGI (SK-MEL-2 melanoma): 3820 nM
GI50 (HL-60(TB) leukemia): 242 nM
TGI (HL-60(TB) leukemia): 1520 nM
GI50 (SN12C renal): 287 nM
TGI (SN12C renal): 2070 nM
GI50 (ACHN renal): 49.6 nM
TGI (ACHN renal): 480 nM
GI50 (SF-295 CNS): 72.9 nM
TGI (SF-295 CNS): 1440 nM
GI50 (SNB-19 CNS): 107 nM
TGI (SNB-19 CNS): 1820 nM
TGI (MCF7 breast): 1310 nM
GI50 (HCT-15 colon): 276 nM
TGI (HCT-15 colon): 1690 nM
GI50 (HS 578T breast): 1110 nM
TGI (HS 578T breast): 4390 nM
GI50 (HT29 colon): 53 nM
TGI (HT29 colon): 820 nM
GI50 (NCI-H522 lung): 154 nM
TGI (NCI-H522 lung): 1910 nM
GI50 (KM12 colon): 297 nM
TGI (KM12 colon): 1760 nM
GI50 (MDA-MB-231 breast): 1950 nM
TGI (MDA-MB-231 breast): 3830 nM
GI50 (MDA-MB-435): 950 nM
TGI (MDA-MB-435): 2670 nM
GI50 (CAKI-1 renal): 126 nM
TGI (CAKI-1 renal): 1810 nM
GI50 (UACC-62 melanoma): 372 nM
TGI (UACC-62 melanoma): 1850 nM
GI50 (UACC-257 melanoma): 3370 nM
TGI (UACC-257 melanoma): 9390 nM
GI50 (SR leukemia): 35.5 nM
TGI (SR leukemia): 1780 nM
GI50 (HOP-92 NSCLC): 25.9 nM
TGI (HOP-92 NSCLC): 89.9 nM
GI50 (RXF 393 renal): 1870 nM
TGI (RXF 393 renal): 3880 nM
GI50 (NCI-H226 lung): 1010 nM
TGI (NCI-H226 lung): 3650 nM
GI50 (A549 NSCLC): 946 nM
TGI (A549 NSCLC): 8750 nM
GI50 (OVCAR-4 ovarian): 492 nM
TGI (OVCAR-4 ovarian): 2770 nM
GI50 (NCI-H460 lung): 25 nM
TGI (NCI-H460 lung): 343 nM
GI50 (MALME-3M melanoma): 341 nM
TGI (MALME-3M melanoma): 1620 nM
GI50 (OVCAR-8 ovarian): 225 nM
TGI (OVCAR-8 ovarian): 3640 nM
GI50 (UO-31 renal): 98.9 nM
TGI (UO-31 renal): 1060 nM
